Data on 25 molecules can be found in paper PMC11370232, “Repurposing of a library for high-content screening of inhibitors against Echinococcus granulosus” (Parasites & Vectors, 2024).

The test system of one data set is EGFR. The arrangement: method as in SelleckChem library description. To be noted: ref SelleckChem library description; cited from earlier work.
The subject of data set [1] is lab-cultured E. granulosus cysts (> 1 mm). Put plainly: In vitro cyst viability assay. Format: cell-based, Echinococcus granulosus. To be noted: for inhibition at 10 µM: Echinococcus granulosus, 72 h, read-out: inhibitory rate against the cysts.
In data set [2] the test system is lab-cultured E. granulosus microcysts (< 1 mm). Put plainly: In vitro microcyst viability assay. Format: cell-based, Echinococcus granulosus. To be noted: 10 μM, 4 days. On the procedure: The in vitro E. granulosus culture progression was divided into two stages: an early stage in which the PSC culture was established by digesting echinococcal cysts isolated from naturally infected sheep livers, followed by a late stage with differentiation into cysts. CSCs were cultured from PSCs according to our previously described method. Briefly, the PSCs were incubated at 37 °C in glass culture vessels in RPMI 1640 medium (Invitrogen, San Diego, CA) containing 20% (v/v) FCS (Invitrogen), 0.45% (w/v) yeast extract, 0.4% (w/v) glucose, 100 IU/mL penicillin, and 100 μg/mL streptomycin placed on a solid-phase base prepared by heating newborn calf serum at 75 °C for 45 min (Smyth, 1990). Approximately 100 PSCs/mL were cultured, and the liquid medium was replaced every 3 days. After 56 days of cultivation, about 10% of the PSCs had developed into cysts with a thin laminated layer. The external diameter of the cysts was 328.6 ± 48 μm, and they appeared to the naked eye as clear capsular cysts. The cysts were carefully aspirated from the culture flasks and separated from dead or undeveloped PSCs by Pasteur pipetting. CSCs included microcysts and cysts: the diameter of the microcysts ranged from 300 μm to 1 mm, and the diameters of the cysts were greater than 1 mm.
CSCs were cultured from PSCs utilizing the method described in a previous section. The in vitro cultured cysts (10 ± 5/well) or microcysts (10 ± 5/well) were seeded in 96-well plates before adding drugs. For the cyst/microcyst viability assay, cysts or microcysts were cultured in one well of a 96-well plate. After 1 day of culture, drugs were added to each well at a final concentration of 10 μM. For the cyst viability assay, the cyst survival rate was determined every 24 h after incubation with drugs, while for the microcyst viability assay, the survival rate of microcysts was determined at 4 days after drug incubation. The following equation was used for the death rate: death rate of CSCs (%) = 100 × (number of dead CSCs/number of total CSCs).

The test system of data set [3] is HepG2. Put plainly: Cytotoxicity in HepG2. To be noted: read-out: Cytotoxicity in HepG2, CC50; HepG2.
For the next data set, the system named is PTEN. Set-up: method as in SelleckChem library description. To be noted: ref SelleckChem library description; cited from earlier work.
The next data set concerns MALT1. Set-up: method as in SelleckChem library description. To be noted: ref SelleckChem library description; cited from earlier work.
For data set [4], the system named is E. multilocularis metacestodes. The arrangement: method as in PMID 30396011. To be noted: cited from earlier work.
For data set [5], the system named is alpha- and beta-coronaviruses. To be noted: cited from earlier work.
The next data set in a line: in vitro. To be noted: human.
Another data set deals with N. fowleri. Set-up: method as in earlier work. To be noted: cited from earlier work.
The next data set concerns p97. The arrangement: method as in SelleckChem library description. To be noted: ref SelleckChem library description; cited from earlier work.
A further data set deals with ALK. The arrangement: method as in SelleckChem library description. To be noted: ref SelleckChem library description, cited from earlier work.
Another data set deals with 20S proteasome. The arrangement: method as in SelleckChem library description. To be noted: ref SelleckChem library description; read-out: IC50, chymotrypsin-like activity of purified 20S proteasome; cited from earlier work.
In data set [6] the test system is Trypanosoma brucei brucei GUTat 3.1. Set-up: method as in SelleckChem library description. To be noted: ref SelleckChem library description; cited from earlier work.
The test system of data set [7] is Plasmodium falciparum K1a. The arrangement: method as in SelleckChem library description. To be noted: ref SelleckChem library description; cited from earlier work.
The subject of data set [8] is HepG2.
The nature of another data set: Cytotoxicity in HepG2. To be noted: human.
The test system of data set [9] is E. granulosus cysts collected from mice infected with microcysts. Put plainly: Ex vivo cyst viability assay. Format: cell-based, Echinococcus granulosus. To be noted: for metacestodicidal effect on cysts ex vivo: 1 to 20 μM, 7 days. On the procedure:
BALB/c mice were inoculated with cultured microcysts following the methodology outlined in a previous study; 10 weeks post-infection, the mice were euthanized, and cysts were harvested from the peritoneal cavity. The cysts were categorized as size-small cysts, with a diameter less than 5 mm and without PSCs, or large cysts, with a diameter greater than 5 mm and with PSCs. Subsequently, the cysts were incubated in bottles with RPMI 1640 culture medium enriched with 10% FCS and antibiotics.
To determine the effect of omaveloxolone (HY-12212, MCE) and niclosamide (HY-B0497, MCE) on isolated cyst viability ex vivo, cysts collected from the peritoneal cavity of infected mice were incubated with different concentrations of drugs (1, 5, and 20 μM) for 7 days. The mortality rate of the cysts was recorded each day according to the following equation: death rate of cyst/microcyst (%) = [number of dead (cysts and microcysts)/number of total (cysts and microcysts)].

The test system of data set [10] is E. multilocularis metacestode burden. The arrangement: method as in PMID 32636148. To be noted: oral treatment, mice infected intraperitoneally with metacestodes or orally with eggs, compared with albendazole; cited from earlier work.
Data set [11] concerns E. multilocularis and E. granulosus s.s. PSCs, metacestode vesicles, and germinal layer cells. Set-up: method as in PMID 37540716. To be noted: cited from earlier work.
Data set [12] concerns E. multilocularis metacestodes. The arrangement: method as in PMID 32636148. To be noted: screening cascade; cited from earlier work.
A further data set deals with echinococcal cysts. The arrangement: method as in PMID 32279056. To be noted: three-dose intraperitoneal regimen, 57 mg/kg once a day for 3 days; cited from earlier work.
In the next data set the test system is Chk1. The arrangement: method as in SelleckChem library description. To be noted: ref SelleckChem library description, cited from earlier work.
The subject of another data set is CE. Set-up: method as in PMID 15708321, PMID 11776080. To be noted: retrospective study; cited from earlier work.

In brackets after ≈: the same amount, converted by molar mass. Structures can show the parent of a compound that is named as a salt. Where two headings read alike, the source gives them in different places.

With `CC#CC(=O)Nc1ccc2ncnc(Nc3cccc(Br)c3)c2c1` [CL-387785 (EKI-785), CL-387785], the IC50 in the data set on EGFR is 0.00037 µM.

As to `CC(=O)OC[C@H]1O[C@@H]([S-])[C@H](OC(C)=O)[C@@H](OC(C)=O)[C@@H]1OC(C)=O.CCP(CC)CC.[Au+]` [Auranofin], the “inhibitory rate against the cysts” value in data set [1] (10 μM, day 3 post-treatment) turned out to be 100%. In addition, the “effect on microcyst viability” value in data set [2] is “did not exert a significant inhibitory effect”. Besides, the CC50 in the data set with HepG2 [3] was determined as 13.4 µM.

Turning to `CC(C)(C)C(=O)Nc1ccc2c(c1)C(=O)C(=O)c1ccccc1-2` [SF1670], the concentration for half-maximal inhibition (IC50) with PTEN was 2 µM.

Regarding MI-2 [MI-2 (MALT1 inhibitor)], the IC50 with MALT1 is 5.84 µM.

Turning to `Cc1[nH]c2cc(F)cc(F)c2c(=O)c1-c1ccc(Oc2ccc(OC(F)(F)F)cc2)cc1` [MMV671636, ELQ-400], the “MIC50 against E. multilocularis metacestodes cultured in vitro” value in data set [4] was 0.02 µM (≈ 0.00895 µg/mL).

As to `COC(=O)[C@]12CCC(C)(C)C[C@H]1[C@H]1C(=O)C=C3[C@@]4(C)C=C(C#N)C(=O)C(C)(C)[C@@H]4CC[C@@]3(C)[C@]1(C)CC2` [Bardoxolone methyl], the coronavirus inhibition entry in data set [5] is “inhibitors of both alpha- and beta-coronaviruses”. Moreover, the CC50 in the data set “in vitro” was found to be 8.13 µM. The figures for the “inhibition of N. fowleri growth” value in the data set on N. fowleri (24 h) and in the data set on N. fowleri (48 h) were “approximately 85%” and 97%, respectively. Moreover, in data set [1] (10 μM, day 3 post-treatment), the inhibition at 10 µM turned out to be 100%.

Turning to `c1ccc(CNc2nc(NCc3ccccc3)c3ccccc3n2)cc1` [DBeQ], the IC50 in the data set on p97 is 1.5 µM.

Regarding `Cc1cc(Nc2ncc(Cl)c(Nc3ccccc3S(=O)(=O)C(C)C)n2)c(OC(C)C)cc1C1CCNCC1` [Ceritinib (LDK378), Ceritinib], in the data set with ALK (cell-free assays), the half-maximal inhibitory concentration (IC50) is […]. Besides, in the data set with ALK, the “selectivity against IGF-1R” value is reported as […] and the “selectivity against InsR” value is on record as […].

Consider `CC1=C(O)C(=O)C=C2C1=CC=C1[C@@]2(C)CC[C@@]2(C)[C@@H]3C[C@](C)(C(=O)O)CC[C@]3(C)CC[C@]12C` [Celastrol], for which the half-inhibitory concentration (IC50) in the data set on 20S proteasome was 2.5 µM.

With Elaiophylin, the half-inhibitory concentration (IC50) in data set [6] is 0.45 µM; in data set [7] it was 0.36 µM.

In the case of `CC(C)(Cc1ccc2ccccc2c1)NC[C@@H](O)COc1cccc(Cl)c1C#N` [NPS-2143], the CC50 with HepG2 [8] worked out at 15.3 µM.

In “in vitro”, `CC(C)(C)c1ccc(C(O)CCCN2CCC(C(O)(c3ccccc3)c3ccccc3)CC2)cc1` (stereo not shown) [Terfenadine] had a CC50 of 7.31 µM.

In the case of `CC1(C)CC[C@]2(NC(=O)C(C)(F)F)CC[C@]3(C)[C@H](C(=O)C=C4[C@@]5(C)C=C(C#N)C(=O)C(C)(C)[C@@H]5CC[C@]43C)[C@@H]2C1` [Omaveloxolone], the coronavirus inhibition result in data set [5] is “inhibitors of both alpha- and beta-coronaviruses”. For the same molecule, the inhibition at 10 µM in data set [1] was found to be 100%. The “effect on microcyst viability” value in data set [2] was “complete lethality”. For the same molecule, the CC50 in the data set “Cytotoxicity in HepG2” (HepG2 cells) is 9.33 µM. Also, in data set [9], the “day on which all cysts were killed (complete lethality)” value was at most 5 days and the “metacestodicidal effect on cysts ex vivo” value was “obvious metacestodicidal effect”. In data set [9] (5 μM, by day 2, ex vivo), the “reduction in cyst viability” value is listed as 50%.

In turn, `OC1(c2ccc(Cl)c(C(F)(F)F)c2)CCN(CCCC(c2ccc(F)cc2)c2ccc(F)cc2)CC1` [Penfluridol] came in with a CC50 in “Cytotoxicity in HepG2” (HepG2 cells) of 8.63 µM.

With `CCC[C@H](NC(=O)/C(C#N)=C/c1cccc(Br)n1)c1ccccc1` [Degrasyn (WP1130), Degrasyn], the “cyst morphology after treatment” value in data set [1] (day 3 post-drug treatment, positive control) is given as “structural damage of the cyst”.

Molecule `CC(=O)Oc1cc(C)c(OC(C)=O)c2ccccc12` [Vitamin K4] returned a CC50 in “Cytotoxicity in HepG2” (HepG2 cells) above 100 µM.

Take `O=C(Nc1cccc(C(F)(F)F)c1)c1cc(Cl)ccc1O` [MMV665807]: the “effect on metacestode burden” value in [10] was “did not lead to a reduction of the metacestode burden”. For the same molecule, the “activity against the parasites of both species in all four assays” value in [11] is reported as “active”. Besides, in [12], the “activity against E. multilocularis metacestodes in vitro” value (shortened to “activity … in vitro”) is on record as “active”.

Turning to `COc1ccc2nc3cc(Cl)ccc3c(Nc3cc(CN4CCCC4)c(O)c(CN4CCCC4)c3)c2n1` [pyronaridine], the cyst mortality with echinococcal cysts is on record as 100%.

Consider `O=c1[nH]c2ccc(Cl)cc2c(N[C@@H]2CN3CCC2CC3)c1-c1nc2ccccc2[nH]1` [CHIR-124], for which the IC50 in the data set on Chk1 (cell-free assay) was […]. Besides, the “selectivity against Chk2” value in the data set with Chk1 is recorded as […].

Consider `OC(c1cc(C(F)(F)F)nc2c(C(F)(F)F)cccc12)C1CCCCN1` (stereo not shown) [mefloquine], for which, in data set [12], the “activity … in vitro” value was “active”.

Regarding `COc1ccc2c(c[n+](C)c3c4cc5c(cc4ccc23)OCO5)c1OC` [Chelerythrine], the inhibition at 10 µM in data set [1] (10 μM, day 3 post-treatment) is 100%. Besides, the “effect on microcyst viability” value in data set [2] is reported as “did not exert a significant inhibitory effect”. In “Cytotoxicity in HepG2”, this molecule displayed a CC50 of 32.7 µM.

Regarding `CC(C)(C)[C@H]1CC[C@H](CC2=C(O)C(=O)c3ccccc3C2=O)CC1` [MMV689480, buparvaquone], in data set [4], the “MIC50 against E. multilocularis metacestodes cultured in vitro” value is 2.87 µM (≈ 0.937 µg/mL).

`CCCCc1oc2ccc(NS(C)(=O)=O)cc2c1C(=O)c1ccc(OCCCN(CCCC)CCCC)cc1` [Dronedarone HCl]: the inhibition at 10 µM in data set [1] (10 μM, day 3 post-treatment) was 100%. In addition, in [2], the “effect on microcyst viability” value is on record as “did not exert a significant inhibitory effect”. For the same molecule, the CC50 in “Cytotoxicity in HepG2” (HepG2 cells) was found to be 15.5 µM.

`O=C(Nc1ccc([N+](=O)[O-])cc1Cl)c1cc(Cl)ccc1O` [Niclosamide]: the CC50 in “in vitro” is 6.14 µM. Moreover, the inhibition at 10 µM in data set [1] (10 μM, day 3 post-treatment) amounted to 100%. Also, in [10], the “effect on metacestode burden” value is reported as “did not lead to a reduction of the metacestode burden”. For the same molecule, the “activity against the parasites of both species in all four assays” value in [11] is “active”. Besides, the “effect on microcyst viability” value in data set [2] is on record as “complete lethality”. Also, the “activity … in vitro” value in data set [12] was “active”. Also, in [9], the “day on which all cysts were killed (complete lethality)” value was found to be 7 days and the “metacestodicidal effect on cysts ex vivo” value is “obvious metacestodicidal effect”. Besides, the parasiticidal efficiency entry in [9] (low incubation concentration, from day 5, ex vivo) is reported as “approximately 80%”.

With `CCCSc1ccc2nc(NC(=O)OC)[nH]c2c1` [albendazole], the “patients who did not respond favorably to the medication” value in the data set with CE is “about 40%”.
